Results on two molecules are retold here after patent US20150056702A1, “METHOD AND KIT FOR CULTURING STEM CELLS” (China Medical University, priority 2013, published 2015).

What all share (type): cell-based, mouse
One assay deals with SSEA1. Kind of assay: Immunofluorescence staining, SSEA1 in iPS cells. To be noted: 72 hours, control group = 100%. From the text: Nanog and SSEA1 are also marker proteins of stem cells, and their expression levels could be measured by immunofluorescence staining to further confirm whether BP can effectively maintain the self-renewal and pluripotency of stem cells.
An experimental group medium (BP5, BP10, BP20 or BP40), a LIF-containing medium (without BP), and a control group medium (without BP) were used respectively in a 6-well culture dish which comprises a slide in each well to culture ES cells with an initial density of 1×10^4 per well for 72 hours. The medium was removed and the cells were washed with PBS. Next, PBS was removed, and then 4% paraformaldehyde was added to perform the fixation at room temperature for 10 minutes. Next, paraformaldehyde was removed, and then slides were washed with 0.1% Tween-20/1X PBS three times for 10 minutes each time. The 0.3% Tween-20/1X PBS was added and held at room temperature for 30 minutes to penetrate the cell membrane to benefit the dye entry. After the slides were washed three times with 0.1% Tween-20, 5% FBS/1×PBS was added to perform a blocking reaction at room temperature for 2 hours, and then reacting with the primary antibody [anti-Nanog (Novus) or anti-SSEA1 (Millipore)] at a dilution of 1:100 at room temperature overnight. Slides were then washed 5 times with 0.1% Tween-20, then reacting with the secondary antibody [FITC-conjugated anti-mouse IgG or TRITC-conjugated anti-rabbit IgG (Sigma-Aldrich)] at a dilution of 1:500. After washed with 0.1% Tween-20 for 10 minutes, slides were mounted with the DAPI-containing UltraCruz™ Mounting medium and observed using an inverted fluorescent microscope.
By using the above culture conditions, an experimental group medium (BP5, BP10, BP20 or BP40), a LIF-containing medium (without BP), and a control group medium (without BP) were used respectively to culture iPS cells. The staining of iPS cells was performed by using the steps described above.

The next assay has as its system IL11. The experiment in a line: Real-time PCR, cytokine gene IL11 in ES cells. Particulars: for IL11 mRNA expression level: ES cells, control group = 100%. As for the experimental part:
An experimental group medium (BP5, BP10, BP20 or BP40) and a control group medium (without BP) were added respectively to perform the following steps. ES cells were cultured with an initial density of 1×10^4 per well in a 6-well culture dish. The medium was removed until the cells growth to be about 70 to 80% confluence, and then 1 ml TRIzol (Invitrogen) was added into each well. The cells were incubated for 5 minutes, and then was scraped by a spatula and placed into a 1.5 ml microtube to be lysed adequately. Chloroform (0.2 ml) was added into the microtubes. The mixture was shaken up and down for 15 seconds, and then incubated at room temperature for 2 to 3 minutes. Thereafter, the mixture was centrifuged at 12000 rpm at 4° C. for 15 minutes, and the supernatant was removed into another 1.5 ml microtube and isopropanol (0.5 ml) was added into the microtube with well mixing. The mixture was incubated at room temperature for 10 minutes and then centrifuged at 12000 rpm at 4° C. for 10 minutes. The supernatant was then removed. One ml of 70% ethanol containing DEPC.H2O was used to wash the remaining sediment. The sediment was centrifuged at 7500 rpm at 4° C. for 5 minutes. The supernatant was removed. The sediment was dried by vacuum suction. The dried samples were dissolved in about 0.01 to 0.02 ml of DEPC.H2O to obtain the experimental group RNA and control group RNA. Both groups were stored at −80° C.
The OD value of RNA samples in both groups obtained from the above Experiment I were measured at a wavelength of 260 nm (RNA: OD260=1 for a 40 μg/mL solution). Each RNA sample (2 μl) was added with RNA-free water until the volume of the sample reached 10 μl. Two μl oligo (dT) (100 μg/ml) was added into each sample, and the samples were incubated at 65° C. for 5 minutes. Then, the samples were immediately placed on ice and spun down. Next, 6.5 μl of a reaction solution [4 μl of 5× buffer+1 μl of 0.1 M DTT+1 μl of RNase out+0.5 μl of SSIII (Invitrogen)] was added into each of the samples, and the samples were incubated at 50° C. for about 30 to 60 minutes and at 75° C. for 15 minutes to obtain the experimental group cDNA and control group cDNA. Both groups were stored at −80° C.
This experiment was used to detect the expression levels of ES cell-related genes, i.e., Oct4 and Sox2, etc. First, 4 μl of the experimental group cDNA or control group cDNA was added into each well of a 96-well micro-reaction plate, and mixed with 6 μl of a reaction solution [0.5 μl of 6 μM forward primer+0.5 μl of 6 μM reverse primer+5 μl of SYBR Green PCR Master mix (Roche)], wherein the SYBR Green PCR Master mix included the reagents needed for Q-PCR, such as dNTPs, MgCl, Taq DNA polymerase and 2×SYBR® Green I solution. […] The cycle threshold (CT) values were measured. […]
(In general: Real-time PCR tracks product formation cycle by cycle.)

For a further assay, the system named is Pou5fl-GFP MEF cells. Kind of assay: Examination of iPS cell generation efficiency (GFP fluorescence). From the text: The MEF cells were isolated from Pou5fl-GFP transgenic mice (The Jackson lab). The pcDNA-Oct4, pcDNA-Sox2, pcDNA-c-Myc, and pcDNA-Klf4 plasmids were introduced once every two days (4 times total) into the Pou5fl-GFP MEF cells to generate iPS cells through co-transfection. The medium was changed to BP-containing medium 6 days post-transfection, and the medium was exchanged everyday. On day 9, the MEF cells were passaged onto feeder cells provided by Example 1 and the GFP-positive clones were observed. Finally, the GFP fluorescent signals of the iPS cells were detected by a fluorescent microscope. The fluorescent signal intensity is directly proportional to the cell generation efficiency.
This example includes two groups, BP (T+P) and BP (T), wherein BP (T+P) refers to the group cultured with the experimental group medium (BP10) post-transfection and after placing onto feeder cells, and BP (T) refers to the group cultured with the experimental group medium (BP10) post-transfection.

The mark [1] stands for this setting: BP10 medium (about 10 μg BP/ml).

For `CCCC=C1OC(=O)c2ccccc21` [BP, n-butylidenephthalide], the SSEA1 expression level in the assay on SSEA1 (BP5 medium (about 5 μg BP/ml)) amounted to 117%; with SSEA1 (setting [1]), 101%; with SSEA1 (BP20 medium (about 20 μg BP/ml)), 94%; in the assay on SSEA1 (BP40 medium (about 40 μg BP/ml)), 137%. For the same molecule, the “IL11 mRNA expression level” value with IL11 (BP5 medium (about 5 μg BP/ml)) amounted to 93%; in the assay with IL11 (setting [1]) it was 191%. In the assay on IL11 (BP-containing ES cell medium, result in words), the “mRNA expression level of IL-11” value was “significantly up-regulated”. The “GFP fluorescence intensity in the iPS cells formed” value with Pou5fl-GFP MEF cells (BP (T): BP10 medium post-transfection, Day 7) worked out at 20.5; in the assay with Pou5fl-GFP MEF cells (BP (T): BP10 medium post-transfection, Day 14), 70.5; with Pou5fl-GFP MEF cells (BP (T): BP10 medium post-transfection, Day 20) it was 65.5; in the assay with Pou5fl-GFP MEF cells (BP (T+P): BP10 medium post-transfection and after placing onto feeder cells, Day 7), 27.5; in the assay with Pou5fl-GFP MEF cells (BP (T+P): BP10 medium post-transfection and after placing onto feeder cells, Day 14) it was 82; with Pou5fl-GFP MEF cells (BP (T+P): BP10 medium post-transfection and after placing onto feeder cells, Day 20) it was 92.5. Besides, in the assay on Pou5fl-GFP MEF cells (BP-containing iPS cell medium vs control group (without BP), result in words), the “GFP fluorescent signals (iPS cell generation efficiency)” value is reported as “higher GFP fluorescent signals”.

On to “LIF: multifunctional cell factor used to maintain pluripotency of stem cells; LIF-containing medium (4 ng/ml, without BP) as comparison”, for which the SSEA1 expression level in the assay on SSEA1 (LIF-containing medium (LIF 4 ng/ml, without BP)) is recorded as 230%. In addition, the “IL11 mRNA expression level” value in the assay with IL11 (LIF-containing medium (LIF 4 ng/ml)) is 99%.
